This note sets out measurements from a melting point compilation (Tetko et al.; mined from patent text by program, amines drawn as free bases though some values may be those of a salt).

A value given as a limit tells only on which side of the number the result lay.

Compound `CN1CS(=O)c2cccc(Br)c21` (stereo not given) displayed a melting point of 138 to 140 °C.

Compound `CC(C)(C)C(=O)Nc1ccc2oc3c(c2c1)CCCCC3` had a melting point of 208 to 209 °C.

As for `CC(C)NCC(O)COc1ccc2c(=O)cc(-c3ccc(OCc4ccccc4)c(OCc4ccccc4)c3)oc2c1` (stereo not given), the melting point was in the range of 177 to 179 °C. Then `CC(=O)NC(C)c1ccc(CN2CCN(c3ncccn3)CC2)cc1` (stereo not given), with 124 to 126 °C; and `CN(c1cccc2cc(C3=NCC(CC(N)=O)S3)[nH]c12)S(=O)(=O)c1ccccn1` (stereo not given), with 149 to 150 °C; and `O=[N+]([O-])c1cccc2c1nnn2SC(Cl)(Cl)Cl`, with 136 to 138 °C. The value for `Brc1ccc2cc(SN3CCN(c4ccncc4)CC3)ccc2c1` was 200 to 202 °C; that for `CCCS(=O)(=O)c1c(S(N)(=O)=O)c(C)nn1C` was 127 to 129 °C; that for `CCC1(CC)c2cc(-c3nc4ccccc4s3)ccc2-c2ccc(N(c3ccc(Oc4ccc(N)cc4)cc3)c3ccc(Oc4ccc(N)cc4)cc3)cc21` was 192 to 194 °C.

Regarding `CCOC(=O)C1=C(CSC(C)=O)NC(C)=C(C#N)C1c1cccc([N+](=O)[O-])c1` (stereo not given), the melting point is 155 to 157 °C. `Fc1ccc(C(c2ccc(F)cc2)N2CCN(CCCSc3ncnc4nc[nH]c34)CC2)cc1` had a melting point of 90 to 93 °C. `CCCCCCCCCCCCCCCCCCOc1cc(N)cc(NC(C)=O)c1` came in with a melting point of 115 to 117 °C. The value for `COC(=O)c1c(C)[nH]c(C)c1C1=CC(=O)c2ncccc2C1=O` was 237 to 241 °C; that for `COc1cc(C(=O)N2Cc3ccc(C(=O)NCc4ccc(C)cc4C)n3Cc3ccccc32)ccc1-c1ccccc1C` was 161 to 162 °C; that for `CNC(=O)n1nc(Oc2ncc(C(F)(F)F)cc2Cl)cc1C` was 85 to 86 °C.

Regarding `CC(C)(O)CNCCN(C1CCNCC1)S(=O)(=O)c1ccc(Nc2nccc(Nc3ccc(F)cc3)n2)cc1`, the melting point was found to be 120 °C. For `Oc1ccccc1-c1nnn[nH]1`, the melting point is 228 °C. Then `CC(=O)NCC1CN(c2ccc(N3CCN(C(=O)CCC(=O)c4ccc(CN5CCOCC5)cc4)CC3)c(F)c2)C(=O)O1` (stereo not given), with 178 to 179 °C; and `O=C(Nc1ccc(C(=O)N2Cc3ccccc3Sc3ccccc32)cc1)c1ccccc1Cl`, with 116 to 119 °C. In turn, `CCOC(=O)C=Cc1ccc(Oc2nsnc(Cl)c2=O)cc1` registered a melting point of 126 to 128 °C. The value for `CN1CCN(CC2=NC(NC(=O)Nc3cccc(C#N)c3)C(=O)N(CC(=O)N(C)c3ccccc3)c3ccccc32)CC1` (stereo not given) was 152 to 155 °C; that for `CCOC(=O)C1CC(=O)c2cc(C(C)(C)C)cc(C(C)(C)C)c2O1` (stereo not given) was 61 to 63 °C. The value for `COCCOc1ccc(/C=C/C(=O)O)c(Oc2ncc(Cl)cc2Cl)c1` was 182 to 184 °C; that for `COc1cc2c(cc1F)OCC21C(=O)N(Cc2ccc(C(F)(F)F)o2)c2ccccc21` (stereo not given) was 132 to 134 °C.

Take `COc1ccccc1CNc1cccc(-c2ccnc3c(C(=O)c4cccs4)cnn23)c1`: the melting point is 138 to 140 °C.

Regarding `Cc1cc(Cn2nnn(-c3cccc(C(F)(F)F)c3)c2=O)ccc1N`, the melting point was 89 to 94 °C. Then `Cc1cccc(C(=O)Nc2c[nH]nc2C(=O)NCC(C)(C)CO)n1`, with 217 to 218 °C. The value for `CC1CNC(CC(c2ccccc2)c2ccccc2)=N1` (stereo not given) was 55 to 57 °C. The value for `O=C(NCC(=O)N1c2ccccc2N(Cc2ccccc2)C(=O)[C@H]2CCC[C@H]21)c1ccc([N+](=O)[O-])cc1` (relative stereo) was 231 to 233 °C; that for `Cn1ncc(C(=O)N2CCOCC2)c1C(=O)Nc1ccn2nc(-c3ccccc3)nc2c1` was 203 to 207 °C. `COc1cc2c(Oc3ccc(Cl)cc3F)ncnc2cc1OCc1ccncc1` registered a melting point of 197 to 198 °C. Then `c1ccc2c(Sc3c4ccccc4cc4ccccc34)c3ccccc3cc2c1`, with 257 °C. Compound `COC(=O)c1cccc(-c2cccc(N)c2)c1` yielded a melting point of 63 to 65 °C. `O=C(O)c1ccc(-n2nc(-c3ccccc3O)nc2-c2ccccc2O)cc1` registered a melting point of 255 to 262 °C. `CN(C)c1ccc(CN/C=C2\C(=O)NC(=O)c3ccc(I)cc32)cc1O` showed a melting point of 198 to 199 °C.

The compound `CC(=O)c1ccc(C(=O)N(C)C)o1` yielded a melting point of 101 to 104 °C.

`CSC1=CC2=CN(O)NN2C(Cl)=N1` yielded a melting point of 256 to 257 °C. The value for `COC(=O)C1=C(CBr)Nc2ncnn2C1c1cccs1` (stereo not given) was 155 °C; that for `CS(=O)(=O)N1CCN([C@@H](CNC(=O)c2ccc(OCc3ccncc3)cc2)C(=O)NO)CC1` was 213 °C. Then `CC(O)=C(C(=O)OCc1ccccc1)N1C(=O)[C@@H](N2C(=O)c3ccccc3C2=O)[C@H]1COS(C)(=O)=O`, with 61 to 65 °C; and `O=[N+]([O-])c1ccccc1N1CCN(CC(O)COc2cccc3c2CCCC3)CC1` (stereo not given), with 186 to 187 °C. `CN1C(=O)C2(COc3cc4c(cc32)OCCO4)c2c(C(=O)Nc3ccc(F)cc3)cccc21` (stereo not given) showed a melting point above 250 °C. In turn, `CNC(=S)C1(c2cccnc2)CCCCC1=CCOc1ccccc1` (stereo not given) displayed a melting point of 121 to 122 °C. Then `COc1cc2c(c(Cl)c1Cl)C(=O)C(C)(c1ccc([N+](=O)[O-])cc1)C2` (stereo not given), with 179 to 180 °C; and `CN1C2CCC1CN(c1ccc(Br)nn1)C2`, with 118 to 120 °C. Then `CNc1cc(F)ccc1C(=O)Cc1nnnn1C`, with 132 to 134 °C.

For the compound `COc1c(CCc2ccc(NS(C)(=O)=O)cc2)cc(N2CCC(=O)NC2=O)cc1C(C)(C)C`, the melting point lay within 233 to 234 °C. As for `CC(C)c1c(Cl)nc(Cl)nc1Cl`, the melting point came out at 69.4 °C. On to `O=c1cc(-c2ccc(Cl)cc2)oc2ccc(OCCCCCCN3CCC(O)CC3)cc12`, for which the melting point fell in the range of 127 to 128 °C. Then `CCOC(=O)CCn1ccn([C@H]2CCc3c(F)cc(F)cc3C2)c1=S`, with 105 to 107 °C; and `O=c1cc(-c2ccccc2)nc2ccn(-c3ccccc3)n12`, with 194 to 200 °C.

Take `COCCOC(=O)C1=C(C)NC(C)=C(C(=O)OCCN2CCN(C(c3ccccc3)c3ccccc3)CC2)C1c1cccc([N+](=O)[O-])c1` (stereo not given): the melting point lay within 62 to 66 °C. Then `CN1CCOc2cc(O)c(C3(O)C(=O)N(Cc4ccc(C(F)(F)F)o4)c4ccccc43)cc21` (stereo not given), with 184 to 186 °C; and `CS(=O)(=O)c1ccc(-n2cncc2-c2ccccc2F)cc1`, with 188 to 189 °C. As for `Cc1nccn1-c1nc(-c2ccc(Cl)cc2)c(CCC2=NCCO2)o1`, the melting point lay in the range of 119 to 120 °C. Then `CC(=O)CSc1nc2ccccc2cc1-c1ccccc1`, with 88 to 90 °C; and `COC1C(O)C(COC(c2ccccc2)(c2ccccc2)c2ccccc2)OC(Oc2ccc([N+](=O)[O-])cc2)C1O` (stereo not given), with 104 °C. As to `Oc1cc2cc(-c3c(F)cccc3F)sc2c(Cl)c1Cl`, the melting point is 161 to 162 °C. Take `CC(=O)c1ccc2cc(N3CCNCC3)ccc2c1`: the melting point lay in the range of 170 to 172 °C. Then `OC1(c2ccncc2)CCc2ccccc21` (stereo not given), with 151 °C.

A word on the melting point: it is the temperature, or range, at which the solid turns liquid.
